From ChEMBL document CHEMBL1151592, “Synthesis of new 3,4-disubstituted pyrrolidines as thromboxane A2/prostaglandin H2 (TP) receptor antagonists” (Bioorg Med Chem Lett, 1996)

What was measured:
Homo sapiens = species on record: Homo sapiens; assay: Compound was evaluated for anti-platelet activity by measuring its inhibitory effect on human platelet rich plasma (PRP) aggregated with U-46,619.; type: functional
Cavia porcellus = assay: Compound was evaluated in vivo for inhibition of U 46619 induced increase in tracheal pressure of guinea pig.; type: functional; conditions: Trachea, read-out: ID50 (the source's name)
[1] = molecular target: Thromboxane A2 receptor (Cavia porcellus); assay: Antagonistic activity against TP-receptor by inhibition of U 46619-induced contraction of isolated guinea pig trachea; conditions: read-out: pA2 (converted)

| IC50 (Homo sapiens) | Kb [1] | SMILES | ED50 (Cavia porcellus) |
| --- | --- | --- | --- |
| 600 nM | – | O=C(O)CC/C=C\C[C@@H]1CN(S(=O)(=O)c2cccc3ccccc23)C[C@@H]1c1ccccc1O | 0.0075 mg/kg |
| 4700 nM | 1 nM | O=C(O)CC/C=C\C[C@@H]1CN(S(=O)(=O)c2ccc(Cl)cc2)C[C@@H]1c1ccccc1O | 0.03 mg/kg |
| – | – | CC(C)C(=O)N1C[C@@H](C/C=C\CCC(=O)O)[C@@H](c2ccccc2O)C1 | 0.11 mg/kg |
| 3600 nM | 6.31 nM | O=C(O)CCC/C=C\C[C@@H]1CN(S(=O)(=O)c2cccc3ccccc23)C[C@@H]1c1ccccc1O | 0.08 mg/kg |
| – | – | O=C(O)CC/C=C\C[C@@H]1CN(Cc2cccnc2)C[C@@H]1c1ccccc1O | 1 mg/kg |
| 1300 nM | – | O=C(O)CC/C=C\C[C@@H]1CN(S(=O)(=O)c2cccc3cnccc23)C[C@@H]1c1ccccc1O | 0.011 mg/kg |
| – | – | O=C(O)CC/C=C\C[C@@H]1CO[C@H](c2ccccc2Cl)O[C@@H]1c1ccccc1O | 0.0007 mg/kg |
| – | – | O=C(O)CC/C=C\C[C@@H]1CN(S(=O)(=O)c2cccc3cnccc23)C[C@H]1c1ccccc1O | 0.056 mg/kg |
| – | – | CCCCCCC(=O)N1C[C@@H](C/C=C\CCC(=O)O)[C@@H](c2ccccc2O)C1 | 0.43 mg/kg |
| – | 251 nM | O=C(O)CC/C=C\C[C@@H]1CN(Cc2ccccc2)C[C@@H]1c1ccccc1O | 0.17 mg/kg |
| – | 12.6 nM | O=C(O)CC/C=C\C[C@@H]1CN(S(=O)(=O)c2ccc(Cl)cc2)C[C@H]1c1ccccc1O | 0.12 mg/kg |
| 3000 nM | – | O=C(O)CC/C=C\C[C@@H]1CN(S(=O)(=O)c2cccc3cccnc23)C[C@@H]1c1ccccc1O | 0.025 mg/kg |
